Data as given in patent US20120302555A1, “METHOD OF TREATMENT USING EPROSARTAN” (priority 2008, published 2012).
Structures can show the parent of a compound that is named as a salt.

Experiments:
[1] = Thermodynamic stability of polymorphic forms; type: physicochemical
Procedure: Crystalline eprosartan acid exists in two different polymorphic forms—the α (alpha) and β (beta) forms. The a polymorphic form of eprosartan acid has the highest thermodynamic stability of up to 200° C. Although the Examples use the α form of eprosartan acid, the β form of eprosartan acid can also be used in the same way.

[2] = in vivo; cited from earlier work

highest thermodynamic stability of up to [1] | Compound | variable and mean absolute bioavailability [2]
up to 200 °C | CCCCc1ncc(/C=C(\Cc2cccs2)C(=O)O)n1Cc1ccc(C(=O)O)cc1 [a polymorphic form of eprosartan acid] | –
– | CCCCc1ncc(/C=C(\Cc2cccs2)C(=O)O)n1Cc1ccc(C(=O)O)cc1 [eprosartan mesylate] | approximately 13%
